Test: Aqueous solubility of cyclodextrin-ursolic acid inclusion complex versus ursolic acid alone
Assay type: physicochemical
Details: aqueous solutions; CDUA compared with UA alone

C[C@H]1[C@H](C)CC[C@]2(C(=O)O)CC[C@]3(C)C(=CC[C@@H]4[C@@]5(C)CC[C@H](O)C(C)(C)[C@@H]5CC[C@]43C)[C@H]12 [UA, 3-β-hydroxy-urs-12-en-28-oic acid]
aqueous solubility (in words): largely insoluble

— patent US20150183890A1, “Methods for Formation of Cyclodextrin-Ursolic Acid Inclusion Complex” (Campbell Industries, priority 2013, published 2015)
